Holding throughout (assay type): cell-based
One test has as its system K562 cells. In words: Matador assay, death of K562 reporter cells induced by Digitonin or lytic reagent.
The next test relates to 293FT cells. In words: Matador assay, Digitonin-induced death of transiently transfected 293FT cells. How it is done: The 293FT cells were transfected in a 24-well plate with various expression plasmids (500 ng/well) using calcium phosphate. Approximately, 18 hours post-transfection, the cells were either left untreated or treated with 30 μg/ml Digitonin to induce cell death, followed by the detection of luminescence as described under luciferase assays.
293FT cells were transfected with pLenti-CBGRluc construct in a […]. 72 hours post-transfection, cells were trypsinized and plated in 6-well plates. For induction of cell death, cells in some wells were treated with Digitonin (50 μg/mL final concentration). CBGRluc activity was determined by adding assay buffer (1 mM D-Luciferin, 25 mM glycylclycine, 15 mM potassium phosphate, 15 mM MgSO4, 4 mM EGTA, 2 mM ATP, and 1 mM DTT) in a well mode. The assay buffer with substrate was added at 1:1 (v/v) ratio.
The MLuc7 cDNA also carried M43L and M110L substitutions. […] The mammalian expression vectors encoding the non-secretory forms of the above luciferase cDNAs were transiently transfected into 293FT cells by calcium phosphate co-precipitation method. […] 6 wells were treated with Digitonin and 6 wells were left untreated. Luciferase activity was measured by addition of coelentrazine containing assay buffer directly to each well.
The indicated luciferase constructs in either retroviral or lentiviral vectors were transiently transfected into 293FT cells by calcium phosphate co-precipitation method. Approximately 18 hours post-transfection, cells were treated with Digitonin for 90 minutes or left untreated (control). […] Essentially a similar procedure was used with a construct encoding Lucia-Luc.
293FT cells were transiently transfected with the above construct or left untransfected. Approximately 18 hours post-transfection, cells were treated for 90 min with Digitonin (final concentration 30 μg/ml) or left untreated. After the 90 minute incubation, 200 μl supernatant was collected from each well in a 1.5 ml tubes. The tubes were spun down at 1500 RPM for 5 minutes.
We next examined if the Matador cytotoxicity assay developed by us is limited to only luciferase proteins or can be adapted to any other protein that is not endogenously expressed by the target cells. For this purpose, we transiently transfected 293FT cells by calcium phosphate co-precipitation method with an expression plasmid encoding enhanced green fluorescent protein (GFP) or HA-epitope tagged-mCherry. Approximately 24 post-transfection, the transfected cells were either left untreated or treated with Digitonin to induce cell death. The cells were collected in tubes and centrifuged at 2,000 rpm for 5 min. Cell supernatant was collected in a new set of tubes and cell pellet were washed with cold phosphate-buffered saline twice and lysed in lysis buffer containing 20 mM Tris-HCl, pH 8.0, 500 mM NaCl, 0.25% Triton X-100, 1 mM EDTA, 10 mM β-glycophosphate, 10 mMNaF, 1 mM DTT, 1× protease inhibitor mixture (Roche Molecular Biochemicals) at 4° C. for 30 min. After incubation, the mixture was pippetted five or six times to disperse the cells followed by centrifugation at 14,000 rpm at 4° C. for 10 min. The cell lysates were collected as whole cell extracts, and protein concentration was determined by using Bio-Rad protein assay reagent. 30 μl of cell supernatant or 30 μg of whole cell extracts were heated in the presence of SDS-PAGE sample buffer and loaded on 10% SDS-PAGE gel followed by transferring to nitrocellulose membranes. These membranes were incubated with primary antibodies against specified proteins in Tris-buffered-saline with Tween 20 followed by incubation with secondary antibody (IRDye 800CW conjugates of goat anti-rabbit IgG; Li-Cor) and development with Odyssey Infrared Imaging System CLx (Li-Cor Biosciences). The secondary antibody was used at a 1:10,000 dilution.

Test [1] relates to primary leukemia blast cells (Chrt3). In words: Matador assay on primary leukemia blast cells expressing GLuc. The following applies: two additional primary leukemia samples; Digitonin; present tense.
Procedure: To examine if this assay can be also used to measure death of primary cells, leukemic blasts were isolated from a de-identified leukemia patient using Ficoll-Hypaque gradient centrifugation and then transduced with pLenti-EF1a-Pac-T2A-Gluc-B07 (SEQ ID NO: 94) lentiviral vector to generate primary leukemia blast cells (Chrt3) expressing the non-secretory form of GLuc cDNA. Briefly, 1 million primary leukemic blasts were cultured in XVIVO medium in a 6-well plate in the presence of GLuc lentiviral supernatant and polybrene (5 μg/ml) and centrifuged at 2,800 rpm at 32° C. for 2 hours followed by incubation of cells at 37° C. for 24 hours in XVIVO medium. To measure the killing of Chrt3-GLuc cells, the transduced cells were plated at a density of 20,000 cells per well in 30 μl of medium in triplicate in a white 384 well plate and co-cultured with the effector cells for 4 hours at an E:T ratio of 0.125:1. Cell death was assayed by the single-step homogenous GLuc assay by injecting 0.5×CTZ assay buffer in well mode. […] Two additional primary leukemia samples are infected with GLuc encoding lentiviral vector and cell death is induced by treatment with Digitonin.

Here are results for one compound from US11307205B2, “Non-radioactive cytotoxicity assays” (University of Southern California, priority 2016, dated 2022).

As for `C[C@@H]1CC[C@@]2(OC1)O[C@H]1[C@@H](O)[C@H]3[C@@H]4CC[C@H]5C[C@@H](O[C@@H]6O[C@H](CO)[C@H](O[C@@H]7O[C@H](CO)[C@@H](O)[C@H](O[C@@H]8OC[C@@H](O)[C@H](O)[C@H]8O)[C@H]7O[C@@H]7O[C@H](CO)[C@H](O)[C@H](O[C@@H]8O[C@H](CO)[C@@H](O)[C@H](O)[C@H]8O)[C@H]7O)[C@H](O)[C@H]6O)[C@H](O)C[C@]5(C)[C@H]4CC[C@]3(C)[C@H]1[C@@H]2C` [Digitonin], the MLuc7 activity entry in the test on K562 cells (K562-MLuc7 (additional example), Digitonin 30 μg/ml, 1 cell/well to 10K cells/well) is given as “increase in MLuc7 activity”; in the test with K562 cells (K562-MLuc7, Digitonin 1 hour, 1 cell/well to 400K cells/well), “increase in MLuc7 activity”. Further, the “NLuc luminescence in the supernatant” value in the test on K562 cells (K562-NLuc, Digitonin 1 h, all three assay buffers) was “increase in luminescence”. In the test on K562 cells (K562 cells expressing TurboLuc16, Digitonin 90 min), the TLuc activity result was “increase in TLuc activity”. The “FfLuc and GLuc activities” value with K562 cells (K562 cells expressing both GLuc and FfLuc, Digitonin 30 μg/ml, 90 minutes) was “increase in both FfLuc and GLuc activities”. In the test on K562 cells (K562 cells stably expressing LucPPe-146-1H2, Digitonin 30 μg/ml), the LucPPe-146-1H2 activity entry is “increase in LucPPe-146-1H2 activity”. Besides, in the test on K562 cells (K562 cells stably expressing NLuc, Digitonin 30 μg/ml, 1 hour), the NLuc activity result is on record as “increase in NLuc activity”. Besides, in the test on K562 cells (K562 cells stably expressing Renilla Luc, Digitonin 2 hours), the “Renilla Luc activity” value is “increase in Renilla Luc activity”. The “Luc49-7C6A, Luc78-0B10, Luc133-IB2 and LucPpL-81-6G1 activities” value in the test on K562 cells (K562 cells stably expressing these luciferases, Digitonin 30 μg/ml, example in present tense) was “increase in Luc49-7C6A, Luc78-0B10, Luc133-IB2 and LucPpL-81-6G1 activities”. For the same compound, in the test on K562 cells (K562 co-expressing both luciferases, Digitonin 30 μg/ml, 90 minutes, Dual-Luciferase Reporter Assay System), the “LucPPe-146-1H2 and NLuc luminescence” value is “increase in both LucPPe-146-1H2 and NLuc luminescence”. Moreover, in the test on K562 cells (K562 co-expressing both luciferases, Digitonin, measured in different wells with D-luciferin and CTZ assay buffers), the “LucPPe-146-1H2 and NLuc activities” value was “increase in both LucPPe-146-1H2 and NLuc activities”. Moreover, the luciferase activity result was “increase in luciferase activity” with 293FT cells (FfLuc construct, Digitonin 30 μg/ml, 90 min, supernatant) and “increase in luciferase activity” with 293FT cells (transfected with HtLuc, LoLuc, MLuc7, Digitonin). In the test with 293FT cells (GFP and mCherry-HA transfected, Digitonin), the “fluorescence in cell supernatant” value is listed as “significant increase in fluorescence”. Further, in the test on 293FT cells (GFP transfected, Digitonin), the “GFP release in the supernatant fraction (Western blotting)” value is listed as “increase in GFP release in the supernatant fraction”. In the test with 293FT cells (HA-mCherry transfected, Digitonin), the “mCherry release in the supernatant fraction (Western blotting)” value is reported as “increase in mCherry release in the supernatant fraction”. Further, the LucPPe luciferase activity entry with 293FT cells (LucPPe-146-1H2 transient transfection, Digitonin) is reported as “increase in LucPPe luciferase activity”. In the test with 293FT cells (MYR-GGS-GLuc construct, Digitonin 30 μg/ml, 90 min, supernatant), the Luc activity result is recorded as “increase in Luc activity”. Further, the “increase in alkaline phosphatase activity in the cell supernatants” value with 293FT cells (constructs encoding human embryonal alkaline phosphatase lacking the secretory signal, Digitonin 90 min) is recorded as “greater than 3 fold”. In the test on 293FT cells (empty vector or plasmid encoding the secretory form of human embryonal alkaline phosphatase, Digitonin 90 min), the alkaline phosphatase activity result was “little or no increase”. In addition, in the test with 293FT cells (pLenti-CBGRluc transfected, Digitonin 50 μg/mL), the CBGRluc activity entry is listed as “increase in CBGRluc activity”. Moreover, the “luciferase activity in the cell-free supernatants” value in the test on 293FT cells (transfected with GLuc, NLuc, MLuc7, TLuc16, Paluc1, Htluc1, Loluc, RLuc, Lucia-Luc, Digitonin 90 minutes) was “increase in luciferase activity”. In test [1], the GLuc activity entry is “increase in GLuc activity”.
